Experimental data reported in patent US10208021B2, “Substituted tetrahydroisoquinoline compounds as factor XIa inhibitors” (BRISTOL-MYERS SQUIBB COMPANY, priority 2011, dated 2019).
Structures can show the parent of a compound that is named as a salt.

Molecular target: purified human Factor XIa (Homo sapiens (Human), UniProt P03951)
Assay: Factor XIa chromogenic substrate (S-2366) inhibition assay
Assay type: biochemical
Method: The effectiveness of compounds of the present invention as inhibitors of the coagulation factors XIa, VIIa, IXa, Xa, XIIa, plasma kallikrein or thrombin, can be determined using a relevant purified serine protease, respectively, and an appropriate synthetic substrate. The rate of hydrolysis of the chromogenic or fluorogenic substrate by the relevant serine protease was measured both in the absence and presence of compounds of the present invention. […] A decrease in the rate of absorbance or fluorescence change in the presence of inhibitor is indicative of enzyme inhibition. Such methods are known to one skilled in the art. The results of this assay are expressed as the inhibitory constant, Ki. […] JT Baker or Fisher Scientific). […] Values of Ki were determined by allowing the protease to react with the substrate in the presence of the inhibitor. Reactions were allowed to go for periods of 20-180 minutes (depending on the protease) and the velocities (rate of absorbance or fluorescence change versus time) were measured.

[1] = substrate S-2366, activity ranges, Table A

Sequence of purified human Factor XIa (P03951 388-625): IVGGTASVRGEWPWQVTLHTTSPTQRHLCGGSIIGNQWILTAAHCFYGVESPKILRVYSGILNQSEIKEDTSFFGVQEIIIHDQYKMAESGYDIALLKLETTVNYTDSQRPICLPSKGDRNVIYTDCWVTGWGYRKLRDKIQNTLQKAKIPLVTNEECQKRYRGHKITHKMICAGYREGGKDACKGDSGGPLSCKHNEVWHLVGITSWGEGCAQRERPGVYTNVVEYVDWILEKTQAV
Sequence of purified human Factor XIa (P03951 19-387 partner): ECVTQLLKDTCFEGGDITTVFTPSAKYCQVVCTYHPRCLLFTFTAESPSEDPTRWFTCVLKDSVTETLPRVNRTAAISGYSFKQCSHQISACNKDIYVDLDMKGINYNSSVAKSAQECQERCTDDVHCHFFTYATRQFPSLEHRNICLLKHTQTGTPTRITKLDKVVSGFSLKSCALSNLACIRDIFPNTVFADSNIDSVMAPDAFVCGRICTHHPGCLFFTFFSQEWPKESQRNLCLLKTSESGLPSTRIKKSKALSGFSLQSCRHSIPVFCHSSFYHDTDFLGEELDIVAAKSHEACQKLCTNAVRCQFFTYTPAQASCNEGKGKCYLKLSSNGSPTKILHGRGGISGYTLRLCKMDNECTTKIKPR

Compound | Ki (substrate S-2366, Table 1) | Ki [1]
CCOC(=O)c1ccc(NC(=O)[C@H]2c3cccc(N4CCN(C)CC4=O)c3CCN2C(=O)/C=C/c2c(-n3cnnn3)ccc(Cl)c2F)cc1 [Example 191, (R,E)-Ethyl 4-(2-(3-(3-chloro-2-fluoro-6-(1H-tetrazol-1-yl)phenyl)acryloyl)-5-(4-methyl-2-oxopiperazin-1-yl)-1,2,3,4-tetrahydroisoquinoline-1-carboxamido)benzoate, TFA Salt] | 1050 nM | –
O=C(O)c1ccc(NC(=O)C2c3cccc(N4CCC(C(=O)N5CCOCC5)CC4)c3CCN2C(=O)/C=C/c2c(-n3cnnn3)ccc(Cl)c2F)cc1 (racemic) [Example 140] | – | < 5 nM
O=C(O)c1ccc(NC(=O)C2c3cccc(N4CCN(C(=O)OCc5ccccc5)CC4=O)c3CCN2C(=O)/C=C/c2c(-n3cnnn3)ccc(Cl)c2F)cc1 (racemic) [Example 52] | < 5 nM | –
O=C(Nc1ccc2cnn(C(=O)OCc3ccccc3)c2c1)C1c2cccc(N3CCNCC3)c2CCN1C(=O)/C=C/c1c(-n2cnnn2)ccc(Cl)c1F (centres unmarked) [Example 9] | – | 5 to 10 nM
O=C(O)c1ccc(NC(=O)C2c3cccc(N4CCCNCC4)c3CCN2C(=O)C=Cc2c(-n3cnnn3)ccc(Cl)c2F)cc1 (centres unmarked) [Example 260] | – | < 5 nM
COC(=O)N[C@H]1CC[C@H](NC(=O)C2c3cccc(N4CCC(N5CCCC5)CC4)c3CCN2C(=O)/C=C/c2c(-n3cnnn3)ccc(Cl)c2F)CC1 (mixture of isomers) [Example 238] | – | 5 to 10 nM
CC(=O)c1ccc(Cl)c(F)c1/C=C/C(=O)N1CCc2c(cccc2N2CCC(C(=O)N(C)C)CC2)C1C(=O)Nc1ccc(C(=O)O)cc1 (racemic) [Example 218] | – | < 5 nM
O=C(O)c1ccc(NC(=O)[C@@H]2c3cccc(N4CCC5(CC4)OCCO5)c3CCN2C(=O)/C=C/c2c(-n3cnnn3)ccc(Cl)c2F)cc1 [Example 143] | – | < 5 nM
COC(=O)c1ccc(NC(=O)C2c3cccc(N4CCC(N5CCCC5)CC4)c3CCN2C(=O)/C=C/c2c(C(C)=O)ccc(Cl)c2F)cc1 (racemic) [Example 175] | < 5 nM | –
CN1CCCN(c2cccc3c2CCN(C(=O)C=Cc2c(-n4cnnn4)ccc(Cl)c2F)C3C(=O)Nc2ccc(C(=O)O)cc2)CC1 (centres unmarked) [Example 265] | – | < 5 nM
CC(C)OC(=O)c1ccc(NC(=O)C2c3cccc(N4CCC(N5CCCC5)CC4)c3CCN2C(=O)/C=C/c2c(-n3cnnn3)ccc(Cl)c2F)cc1 (racemic) [Example 122] | – | < 5 nM
COC(=O)[C@H]1CC[C@H](NC(=O)C2c3cccc(N4CCC(N5CCCC5)CC4)c3CCN2C(=O)/C=C/c2c(-n3cnnn3)ccc(Cl)c2F)CC1 (mixture of isomers) [Example 232] | – | 5 to 10 nM
O=C(Nc1ccc(F)cc1)C1c2cccc(N3CCC(N4CCCC4)CC3)c2CCN1C(=O)C=Cc1c(-n2cnnn2)ccc(Cl)c1F (centres unmarked) [Example 90] | 314 nM | –
O=C(Nc1ccc2cn[nH]c2c1)C1c2cccc(N3CCNCC3)c2CCN1C(=O)/C=C/c1c(-n2cnnn2)ccc(Cl)c1F (centres unmarked) [Example 11] | – | < 5 nM
COC(=O)c1ccc(NC(=O)[C@@H]2c3cccc(N4CCC5(CC4)OCCO5)c3CCN2C(=O)/C=C/c2c(-n3cnnn3)ccc(Cl)c2F)cc1 [Example 144] | – | < 5 nM
Cn1ncc2cc(NC(=O)C3c4cccc(N5CCC(N6CCCC6)CC5)c4CCN3C(=O)/C=C/c3c(-n4cnnn4)ccc(Cl)c3F)ccc21 (racemic) [Example 127] | – | < 5 nM
COC1CCN(c2cccc3c2CCN(C(=O)/C=C/c2c(-n4cnnn4)ccc(Cl)c2F)[C@@H]3C(=O)Nc2ccc(C(=O)O)cc2)CC1 [Example 151] | – | < 5 nM
O=C(O)c1ccc(NC(=O)C2c3cccc(N4CCNCC4)c3CCN2C(=O)/C=C/c2cc(Cl)c(F)cc2-n2cnnn2)cc1 (centres unmarked) [Example 65, (E)-4-(2-(3-(5-chloro-4-fluoro-2-(1H-tetrazol-1-yl)phenyl)acryloyl)-5-(piperazin-1-yl)-1,2,3,4-tetrahydroisoquinoline-1-carboxamido)benzoic acid, bis TFA Salt] | – | 5 to 10 nM
CC(=O)c1ccc(Cl)c(F)c1C=CC(=O)N1CCc2c(cccc2N2CCC(OCCN(C)C)CC2)C1C(=O)Nc1ccc(C(=O)O)cc1 (centres unmarked) [Example 267] | – | < 5 nM
COC(=O)Nc1ccc(NC(=O)C2c3cccc(N4CCC(N5CCCC5)CC4)c3CCN2C(=O)C=Cc2c(-n3cnnn3)ccc(Cl)c2F)cc1 (centres unmarked) [Example 99] | – | < 5 nM
O=C(O)c1ccc(NC(=O)C2c3cccc(N4CCC(N5CCOCC5)CC4)c3CCN2C(=O)/C=C/c2c(-n3cnnn3)ccc(Cl)c2F)cc1 (racemic) [Example 138] | – | < 5 nM
CC1(C)Cc2c(cccc2N2CCOCC2)[C@@H](C(=O)Nc2ccc(C(=O)O)cc2)N1C(=O)/C=C/c1c(-n2cnnn2)ccc(Cl)c1F [Example 199] | – | < 5 nM
COc1ccc(Cl)c(F)c1/C=C/C(=O)N1CCc2c(cccc2N2CCC(N3CCCC3)CC2)C1C(=O)Nc1ccc(C(=O)O)cc1 (racemic) [Example 161] | – | < 5 nM
COC(=O)Nc1ccc(NC(=O)C2c3cccc(N4CCC(N5CCCC5)CC4)c3CCN2C(=O)/C=C/c2c(-n3cnnn3)ccc(Cl)c2F)cc1 (racemic) [Example 89] | – | < 5 nM
CCOC(=O)c1ccc(NC(=O)C2c3cccc(N4CCOCC4=O)c3CCN2C(=O)/C=C/c2c(-n3cnnn3)ccc(Cl)c2F)cc1 (racemic) [Example 51] | – | 5 to 10 nM

Compound | Ki (substrate S-2366, Table 1) | Ki [1]
O=C(NC1CC1)c1ccc(NC(=O)C2c3cccc(N4CCNCC4)c3CCN2C(=O)/C=C/c2cc(Cl)c(F)cc2-n2cnnn2)cc1 (racemic) [Example 67] | – | 100 to 500 nM
CCOC(=O)c1ccc(NC(=O)[C@@H]2c3cccc(N4CCN(C)CC4)c3CC(C)(C)N2C(=O)/C=C/c2c(-n3cnnn3)ccc(Cl)c2F)cc1 [Example 203] | – | 5 to 10 nM
CCOC(=O)c1ccc(NC(=O)C2c3cccc(N4CCN(C)CC4)c3CCN2C(=O)C=Cc2c(-n3cnnn3)ccc(Cl)c2F)cc1 (centres unmarked) [compound 28] | 1220 nM | –
COC(=O)Nc1ccc(NC(=O)C2c3cccc(N4CCOCC4)c3CCN2C(=O)/C=C/c2c(-n3cnnn3)ccc(Cl)c2F)cc1 (racemic) [Example 58] | – | 100 to 500 nM
O=C(O)c1ccc(NC(=O)C2c3cccc(N4CCCNCC4)c3CCN2C(=O)/C=C/c2c(-n3cnnn3)ccc(Cl)c2F)cc1 (racemic) [Example 256] | – | < 5 nM
CC1(C(=O)N2CCCC2)CCN(c2cccc3c2CCN(C(=O)/C=C/c2c(-n4cnnn4)ccc(Cl)c2F)C3C(=O)Nc2ccc(C(=O)O)cc2)CC1 (racemic) [Example 152] | – | < 5 nM
O=C(O)c1ccc(NC(=O)C2c3cccc(N4CCC(N5CCCC5)CC4)c3CCN2C(=O)/C=C/c2cc(Cl)ccc2C(F)F)cc1 (racemic) [Example 158] | – | < 5 nM
O=C(O)c1ccc(NC(=O)C2c3cccc(N4CCC(N5CCCC5)CC4)c3CCN2C(=O)/C=C/c2c(F)ccc(F)c2F)cc1 (racemic) [Example 182] | – | 5 to 10 nM
CCOC(=O)c1ccc(NC(=O)C2c3cccc(N4CCC5(CCN(C)C5=O)CC4)c3CCN2C(=O)C=Cc2c(-n3cnnn3)ccc(Cl)c2F)cc1 (centres unmarked) [Example 110] | – | 5 to 10 nM
O=C(O)c1ccc(NC(=O)C2c3cccc(N4CCC(N5CCCC5)CC4)c3CCN2C(=O)/C=C/c2cccc(Cl)c2Cl)cc1 (racemic) [Example 157] | – | 5 to 10 nM
COCCOC1CCN(c2cccc3c2CCN(C(=O)/C=C/c2c(C(C)=O)ccc(Cl)c2F)C3C(=O)Nc2ccc(C(=O)O)cc2)CC1 (racemic) [Example 269] | – | < 5 nM
CC(=O)c1ccc(Cl)c(F)c1/C=C/C(=O)N1CCc2c(cccc2N2CCCCC2=O)[C@@H]1C(=O)Nc1ccc(C(=O)O)cc1 [compound 39] | – | 5 to 10 nM
O=C(Nc1ccc(Cl)cc1)C1c2cccc(N3CCC(N4CCCC4)CC3)c2CCN1C(=O)C=Cc1c(-n2cnnn2)ccc(Cl)c1F (centres unmarked) [Example 112] | – | < 5 nM
CC(C)(C)OC(=O)c1ccc(NC(=O)C2c3cccc(N4CCNCC4)c3CCN2C(=O)/C=C/c2c(-n3cnnn3)ccc(Cl)c2F)cc1 (centres unmarked) [Example 7] | 49.7 nM | –
CCOC(=O)c1ccc(NC(=O)C2c3cccc(N4CCC(N5CCCC5)CC4)c3CCN2C(=O)/C=C/c2c(C#N)ccc(Cl)c2F)cc1 (racemic) [Example 165] | – | 5 to 10 nM
CN(C)CCNC(=O)N1CCCN(c2cccc3c2CCN(C(=O)/C=C/c2c(-n4cnnn4)ccc(Cl)c2F)C3C(=O)Nc2ccc(C(=O)O)cc2)CC1 (racemic) [Example 261] | – | < 5 nM
N#Cc1ccc(Cl)c(F)c1C=CC(=O)N1CCc2c(cccc2N2CCC(N3CCCC3)CC2)C1C(=O)Nc1ccc(C(=O)O)cc1 (centres unmarked) [Example 163] | – | 5 to 10 nM
CCNC(=O)c1ccc(NC(=O)C2c3cccc(N4CCNCC4)c3CCN2C(=O)/C=C/c2cc(Cl)c(F)cc2-n2cnnn2)cc1 (racemic) [Example 71] | 492 nM | –
CC(=O)c1ccc(Cl)c(F)c1/C=C/C(=O)N1CCc2c(cccc2N2CCCCC2=O)C1C(=O)Nc1ccc(C(=O)O)cc1 (racemic) [compound 38] | – | 5 to 10 nM
O=C(O)c1ccc(NC(=O)C2c3cccc(N4CCC5(CCNCC5)CC4)c3CCN2C(=O)/C=C/c2c(-n3cnnn3)ccc(Cl)c2F)cc1 (racemic) [Example 146] | – | < 5 nM
O=C(O)c1ccc(NC(=O)[C@H]2c3cccc(N4CCCCC4=O)c3CCN2C(=O)/C=C/c2cc(Cl)c(F)cc2-n2cnnn2)cc1 [compound 41] | 5640 nM | –
CCOC(=O)c1ccc(NC(=O)C2c3cccc(N4CCCCC4=O)c3CCN2C(=O)/C=C/c2c(-n3cnnn3)ccc(Cl)c2F)cc1 (racemic) [compound 43] | 20.6 nM | –
O=C(Nc1ccc(F)cc1)C1c2cccc(N3CCC(N4CCCC4)CC3)c2CCN1C(=O)C=Cc1c(-n2cnnn2)ccc(Cl)c1F (centres unmarked) [Example 86] | – | < 5 nM
CC(=O)OC1CCN(c2cccc3c2CCN(C(=O)/C=C/c2c(-n4cnnn4)ccc(Cl)c2F)C3C(=O)Nc2ccc(C(=O)O)cc2)CC1 (racemic) [Example 137] | – | < 5 nM
COC(=O)Nc1ccc(NC(=O)C2c3cccc(N4CCNCC4)c3CCN2C(=O)/C=C/c2c(-n3cnnn3)ccc(Cl)c2F)cc1 (centres unmarked) [Example 4] | 10.3 nM | –
